# System: bentgrass
# Assay: Seed treatment of bentgrass: ground coverage by emerged plants (safener action)
# Format: in vivo
# Protocol: Seeds were treated with the two active compounds individually or with mixtures of both active compounds, and the development of the plants was then observed. When the mixtures were used, the negative effects of one or both mixing partners in the case of individual application were, if at all, observed at a reduced level.
# Seeds of bentgrass were seed-treated with the products and concentrations listed. Triticonazol and Pyraclostrobin were used as 200 g/l FS-formulation.
# Treated sees were planted at the day of treatment and then kept under humid conditions in the greenhouse. 9 days after plating the ground coverage by emerged plants were estimated in percentage.
compound,measurement,setting,value
"COC(=O)N(OC)c1ccccc1COc1ccn(-c2ccc(Cl)cc2)n1 [Pyraclostrobin, pyraclostrobin]",% covered ground,"10 g a.i./100 kg seed of each active compound (200 g/l FS-formulation), greenhouse, humid conditions, ground coverage by emerged plants estimated 9 days after planting, untreated 8.5%",13.3%
same,safener action: negative effect of triticonazole on plant development,mixture versus individual application,negative effect of TTZ can be compensated
